27 compounds from patent US8846933B2, “N-link hydroxamic acid derivatives useful as antibacterial agents” (Pfizer Inc., priority 2009, dated 2014) can be followed below.

SMILES strings stand for the structures.

Assay [1] concerns Pseudomonas aeruginosa UI-18: Wild-type (PA-7). Put plainly: MIC determination (CLSI), strain PA-7. Format: cell-based. To be noted: strain PA-7, unit assumed. The method, then: (§1) The in vitro antibacterial activity of compounds described in the Examples was evaluated by minimum inhibitory concentration (MIC) testing according to Clinical and Laboratory Standards Institute (CLSI, formerly NCCLS) guidelines. See: Clinical and Laboratory Standards Institute. Methods for Dilution Antimicrobial Susceptibility Tests for Bacteria that Grow Aerobically; Approved Standard-Seventh Edition. CLSI document M7-A7 [ISBN 1-56238-587-9]. Clinical and Laboratory Standards Institute, 940 West Valley Road, Suite 1400, Wayne, Pa. 19087-1898 USA, 2006; also Clinical and Laboratory Standards Institute. Performance Standards for Antimicrobial Susceptibility Testing; Eighteenth Informational Supplement. CLSI document M100-S18 [ISBN1-56238-653-0].Clinical and Laboratory Standards Institute.
(§2) The following bacterial strains were used in these MIC determinations:
1) Pseudomonas aeruginosa UI-18: Wild-type, labeled as PA-7 in Tables 4, and 5;

Assay [2] has as its system Escherichia coli EC-1: VOGEL, mouse virulent. The assay can be described thus: MIC determination (CLSI), strain EC-1. Format: cell-based. To be noted: strain EC-1, unit assumed. On the procedure:
as §1, §2
3) Escherichia coli EC-1: VOGEL, mouse virulent labeled as EC-1 in Tables 4 and 5;

Setting [3] is: generated in the same manner as in Table 4.

As to `CC(CCn1ccc(-c2ccc(OCCCN3CCC(F)(F)C3)cc2)cc1=O)(C(=O)NO)S(C)(=O)=O` (stereo not drawn) [Example 93, 4-[4-{4-[3-(3,3-difluoropyrrolidin-1-yl)propoxy]phenyl}-2-oxopyridin-1(2H)-yl]-N-hydroxy-2-methyl-2-(methylsulfonyl)butanamide], the PA-7 (MIC) in assay [1] (setting [3]) was determined as 8 µg/mL. In addition, the EC-1 (MIC) in assay [2] (setting [3]) was 1 µg/mL.
In the case of `CC(CCn1ccc(-c2cccc(CO)c2)cc1=O)(C(=O)NO)S(C)(=O)=O` (stereo not drawn) [Example 144, N-hydroxy-4-{4-[3-(hydroxymethyl)phenyl]-2-oxopyridin-1(2H)-yl}-2-methyl-2-(methylsulfonyl)butanamide], the PA-7 (MIC) in assay [1] (setting [3]) is above 64 µg/mL. The same compound had an EC-1 (MIC) in assay [2] (setting [3]) above 64 µg/mL.
In the case of `Cc1cc(-c2ccn(CC[C@](C)(C(=O)NO)S(C)(=O)=O)c(=O)c2)ccc1C#N` [Example 467], the PA-7 (MIC) in assay [1] amounted to 2 µg/mL. For the same compound, the EC-1 (MIC) in assay [2] worked out at 4 µg/mL.
On the same counts, the results for `C[C@@](CCn1ccc(-c2ccc(OC3CCNCC3)c(F)c2)cc1=O)(C(=O)NO)S(C)(=O)=O` [Example 337, (2R)-4-{4-[3-fluoro-4-(piperidin-4-yloxy)phenyl]-2-oxopyridin-1(2H)-yl}-N-hydroxy-2-methyl-2-(methylsulfonyl)butanamide] are above 64 µg/mL and above 64 µg/mL.
In the case of `CC(CCn1ccc(-c2ccc(C(F)(F)F)cc2C(F)(F)F)cc1=O)(C(=O)NO)S(C)(=O)=O` (stereo not drawn) [Example 174, 4-{4-[2,4-bis(trifluoromethyl)phenyl]-2-oxopyridin-1(2H)-yl}-N-hydroxy-2-methyl-2-(methylsulfonyl)butanamide], the PA-7 (MIC) in assay [1] (setting [3]) was above 64 µg/mL. The EC-1 (MIC) in assay [2] (setting [3]) came to 64 µg/mL.
The matching figures for `CCNC(=O)c1cc(F)cc(-c2ccn(CCC(C)(C(=O)NO)S(C)(=O)=O)c(=O)c2)c1` (stereo not drawn) [Example 103, N-ethyl-3-fluoro-5-{1-[4-(hydroxyamino)-3-methyl-3-(methylsulfonyl)-4-oxobutyl]-2-oxo-1,2-dihydropyridin-4-yl}benzamide]: above 64 µg/mL and above 64 µg/mL.
Turning to `CC(CCn1ccc(-c2cccc(OCCCO)c2F)cc1=O)(C(=O)NO)S(C)(=O)=O` (stereo not drawn) [Example 307, 4-{4-[2-fluoro-3-(3-hydroxypropoxy)phenyl]-2-oxopyridin-1(2H)-yl}-N-hydroxy-2-methyl-2-(methylsulfonyl)butanamide], the PA-7 (MIC) in assay [1] was determined as 16 µg/mL. For the same compound, the EC-1 (MIC) in assay [2] turned out to be 16 µg/mL.
`CC(CCn1ccc(-c2ccc(CO)cc2)cc1=O)(C(=O)NO)S(C)(=O)=O` (stereo not drawn) [Example 72, N-hydroxy-4-{4-[4-(hydroxymethyl)phenyl]-2-oxopyridin-1(2H)-yl}-2-methyl-2-(methylsulfonyl)butanamide]: the PA-7 (MIC) in assay [1] (setting [3]) is 16 µg/mL. Besides, in assay [2] (setting [3]), the EC-1 (MIC) was above 64 µg/mL.
With `CC(CCn1ccc(-c2ccc(OCCCN3CCNC(=O)C3)cc2)cc1=O)(C(=O)NO)S(C)(=O)=O` (stereo not drawn) [Example 86, N-hydroxy-2-methyl-2-(methylsulfonyl)-4-[2-oxo-4-{4-[3-(3-oxopiperazin-1-yl)propoxy]phenyl}pyridin-1(2H)-yl]butanamide], the PA-7 (MIC) in assay [1] (setting [3]) is 32 µg/mL. In addition, the EC-1 (MIC) in assay [2] (setting [3]) came out at 16 µg/mL.
Consider `CC(CCn1ccc(-c2cccc(F)c2Cl)cc1=O)(C(=O)NO)S(C)(=O)=O` (stereo not drawn) [Example 157, 4-[4-(2-chloro-3-fluorophenyl)-2-oxopyridin-1(2H)-yl]-N-hydroxy-2-methyl-2-(methylsulfonyl)butanamide], for which the PA-7 (MIC) in assay [1] (setting [3]) turned out to be 2 µg/mL. The EC-1 (MIC) in assay [2] (setting [3]) turned out to be 4 µg/mL.
The matching figures for `CC(CCn1ccc(-c2ccc(OCCCn3cncn3)cc2)cc1=O)(C(=O)NO)S(C)(=O)=O` (stereo not drawn) [Example 92, N-hydroxy-2-methyl-2-(methylsulfonyl)-4-[2-oxo-4-{4-[3-(1H-1,2,4-triazol-1-yl)propoxy]phenyl}pyridin-1(2H)-yl]butanamide]: 16 µg/mL and 8 µg/mL.
With `COc1ccc(-c2ccn(CC[C@](C)(C(=O)NO)S(C)(=O)=O)c(=O)c2C)cc1` [Example 397, (2R)-N-hydroxy-4-[4-(4-methoxyphenyl)-3-methyl-2-oxopyridin-1(2H)-yl]-2-methyl-2-(methylsulfonyl)butanamide], in assay [1], the PA-7 (MIC) is 1 µg/mL. The EC-1 (MIC) in assay [2] worked out at 0.25 µg/mL.
The compound `CC1(O)CCC(Oc2ccc(-c3ccn(CC[C@](C)(C(=O)NO)S(C)(=O)=O)c(=O)c3)cc2F)CC1` (stereo partly drawn) [Example 349, (2R)-4-[4-{3-fluoro-4-[(4-hydroxy-4-methylcyclohexyl)oxy]phenyl}-2-oxopyridin-1(2H)-yl]-N-hydroxy-2-methyl-2-(methylsulfonyl)butanamide] gave a PA-7 (MIC) in assay [1] of 4 µg/mL. This compound also displayed an EC-1 (MIC) in assay [2] of 0.5 µg/mL.
Regarding `COc1ccc2ccc(-c3ccn(CCC(C)(C(=O)NO)S(C)(=O)=O)c(=O)c3)cc2c1` (stereo not drawn) [Example 288, N-hydroxy-4-[4-(7-methoxy-2-naphthyl)-2-oxopyridin-1(2H)-yl]-2-methyl-2-(methylsulfonyl)butanamide], the PA-7 (MIC) in assay [1] turned out to be 4 µg/mL. This compound also yielded an EC-1 (MIC) in assay [2] of 0.125 µg/mL.
In assay [1], `Cc1cc(-c2ccn(CCC(C)(C(=O)NO)S(C)(=O)=O)c(=O)c2)ccc1OCCCn1cncn1` (stereo not drawn) [Example 293, N-hydroxy-2-methyl-2-(methylsulfonyl)-4-[4-{3-methyl-4-[3-(1H-1,2,4-triazol-1-yl)propoxy]phenyl}-2-oxopyridin-1(2H)-yl]butanamide] gave a PA-7 (MIC) of 16 µg/mL. Further, the EC-1 (MIC) in assay [2] amounted to 4 µg/mL.
Compound `C[C@@](CCn1ccc(-c2ccc(Oc3ncccn3)cc2)cc1=O)(C(=O)NO)S(C)(=O)=O` [Example 424, (2R)-N-hydroxy-2-methyl-2-(methylsulfonyl)-4-{2-oxo-4-[4-(pyrimidin-2-yloxy)phenyl]pyridin-1(2H)-yl}butanamide] came in with a PA-7 (MIC) in assay [1] of 4 µg/mL. Moreover, the EC-1 (MIC) in assay [2] is 4 µg/mL.
`CC(CCn1ccc(-c2ccc(Cl)c(F)c2)cc1=O)(C(=O)NO)S(C)(=O)=O` (stereo not drawn) [Example 142, 4-[4-(4-chloro-3-fluorophenyl)-2-oxopyridin-1(2H)-yl]-N-hydroxy-2-methyl-2-(methylsulfonyl)butanamide]: the PA-7 (MIC) in assay [1] (setting [3]) was 1 µg/mL. The compound also gave an EC-1 (MIC) in assay [2] (setting [3]) of 1 µg/mL.
Regarding `COc1ccc(Oc2ccc(-c3ccn(CCC(C)(C(=O)NO)S(C)(=O)=O)c(=O)c3)cc2)cc1` (stereo not drawn) [Example 139, N-hydroxy-4-{4-[4-(4-methoxyphenoxy)phenyl]-2-oxopyridin-1(2H)-yl}-2-methyl-2-(methylsulfonyl)butanamide], in assay [1] (setting [3]), the PA-7 (MIC) turned out to be 8 µg/mL. Also, in assay [2] (setting [3]), the EC-1 (MIC) came out at 0.125 µg/mL.
In turn, `C[C@@](CCn1ccc(-c2ccc(Oc3ncccc3C#N)cc2)cc1=O)(C(=O)NO)S(C)(=O)=O` [Example 427, (2R)-4-[4-{4-[(3-cyanopyridin-2-yl)oxy]phenyl}-2-oxopyridin-1(2H)-yl]-N-hydroxy-2-methyl-2-(methylsulfonyl)butanamide] came in with a PA-7 (MIC) in assay [1] of 2 µg/mL. The compound further yielded an EC-1 (MIC) in assay [2] of 2 µg/mL.
In the case of `CC(=O)c1ccc(-c2ccn(CCC(C)(C(=O)NO)S(C)(=O)=O)c(=O)c2)cc1O` (stereo not drawn) [Example 99, 4-[4-(4-acetyl-3-hydroxyphenyl)-2-oxopyridin-1(2H)-yl]-N-hydroxy-2-methyl-2-(methylsulfonyl)butanamide], in assay [1] (setting [3]), the PA-7 (MIC) is 16 µg/mL. Also, in assay [2] (setting [3]), the EC-1 (MIC) came to 8 µg/mL.
In assay [1], `CC(CCn1ccc(-c2ccc(OCCCN3CCOCC3)cc2Cl)cc1=O)(C(=O)NO)S(C)(=O)=O` (stereo not drawn) [Example 225, 4-{4-[2-chloro-4-(3-morpholin-4-ylpropoxy)phenyl]-2-oxopyridin-1(2H)-yl}-N-hydroxy-2-methyl-2-(methylsulfonyl)butanamide] gave a PA-7 (MIC) of 16 µg/mL. The same compound displayed an EC-1 (MIC) in assay [2] of 8 µg/mL.
Regarding `CC(CCn1ccc(-c2ccc(OCCCCS(N)(=O)=O)cc2Cl)cc1=O)(C(=O)NO)S(C)(=O)=O` (stereo not drawn) [Example 276, 4-[4-{4-[4-(aminosulfonyl)butoxy]-2-chlorophenyl}-2-oxopyridin-1(2H)-yl]-N-hydroxy-2-methyl-2-(methylsulfonyl)butanamide], in assay [1], the PA-7 (MIC) turned out to be 32 µg/mL. In assay [2], this compound came in with an EC-1 (MIC) of 16 µg/mL.
`CC(CCn1ccc(-c2cccc(N)c2)cc1=O)(C(=O)NO)S(C)(=O)=O` (stereo not drawn) [Example 110, 4-[4-(3-aminophenyl)-2-oxopyridin-1(2H)-yl]-N-hydroxy-2-methyl-2-(methylsulfonyl)butanamide]: in assay [1] (setting [3]), the PA-7 (MIC) was found to be 64 µg/mL. The compound further yielded an EC-1 (MIC) in assay [2] (setting [3]) above 64 µg/mL.
The matching figures for `COc1ccc(F)cc1-c1ccn(CCC(C)(C(=O)NO)S(C)(=O)=O)c(=O)c1` (stereo not drawn) [Example 173, 4-[4-(5-fluoro-2-methoxyphenyl)-2-oxopyridin-1(2H)-yl]-N-hydroxy-2-methyl-2-(methylsulfonyl)butanamide]: 64 µg/mL and 64 µg/mL.
The matching figures for `CC(CCn1ccc(-c2ccc(OCCCN3CCCCC3)cc2)cc1=O)(C(=O)NO)S(C)(=O)=O` (stereo not drawn) [Example 77]: 64 µg/mL and 64 µg/mL.
As for `Cc1c(OCCCCO)ccc(-c2ccn(CC[C@](C)(C(=O)NO)S(C)(=O)=O)c(=O)c2)c1F` [Example 324], the PA-7 (MIC) in assay [1] worked out at 2 µg/mL. Besides, the EC-1 (MIC) in assay [2] amounted to 0.25 µg/mL.
As for `C[C@@](CCn1ccc(-c2ccc(OCCC3CCN(C(=O)CO)CC3)cc2)cc1=O)(C(=O)NO)S(C)(=O)=O` [Example 312, (2R)-4-[4-{4-[2-(1-glycoloylpiperidin-4-yl)ethoxy]phenyl}-2-oxopyridin-1(2H)-yl]-N-hydroxy-2-methyl-2-(methylsulfonyl)butanamide], the PA-7 (MIC) in assay [1] stood at 4 µg/mL. The compound further gave an EC-1 (MIC) in assay [2] of 0.5 µg/mL.
